Experimental data reported in patent publication US9908826B2, “Synthetic method” (University Court of the University of St. Andrews, priority 2014, dated 2018).

Experiments:
human oestrogen receptor [1] = biological target: T1, human oestrogen receptor (Homo sapiens, UniProt P03372); assay: recombinant yeast oestrogen screen (YES) assay; assay type: cell-based
T1 construct: expressed in transfected cells; host or cells: recombinant yeast (hER yeast strain developed by Glaxo Welcome)
T1 sequence (P03372 1-595): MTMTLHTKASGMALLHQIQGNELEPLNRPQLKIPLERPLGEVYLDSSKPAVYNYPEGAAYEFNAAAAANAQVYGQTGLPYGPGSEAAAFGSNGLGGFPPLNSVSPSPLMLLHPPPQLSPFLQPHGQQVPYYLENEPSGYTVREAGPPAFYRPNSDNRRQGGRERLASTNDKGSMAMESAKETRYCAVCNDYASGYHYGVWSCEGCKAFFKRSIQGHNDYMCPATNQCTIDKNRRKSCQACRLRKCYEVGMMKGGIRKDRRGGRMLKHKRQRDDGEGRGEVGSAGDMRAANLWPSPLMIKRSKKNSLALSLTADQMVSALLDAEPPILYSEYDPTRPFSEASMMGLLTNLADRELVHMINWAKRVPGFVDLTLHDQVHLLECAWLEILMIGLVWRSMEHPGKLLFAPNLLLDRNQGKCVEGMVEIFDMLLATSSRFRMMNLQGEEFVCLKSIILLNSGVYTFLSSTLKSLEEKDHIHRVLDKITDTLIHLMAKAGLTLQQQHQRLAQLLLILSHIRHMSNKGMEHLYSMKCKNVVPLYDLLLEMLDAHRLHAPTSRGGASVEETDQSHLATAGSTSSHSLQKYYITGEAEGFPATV
From the text: In order to test our hypothesis that 3-nonylphenol might show less oestrogenicity than either the linear or the 4-nonylphenol, we have carried out a yeast oestrogen screen (YES) assay which is specific for oestradiol mimics.
The recombinant hER yeast strain was developed by Glaxo Welcome and details of the yeast oestrogen screen have been described previously (Routledge and Sumpter, 1996).
In brief, yeast cells were transfected with the human oestrogen receptor gene together with expression plasmids; the oestrogen response element and the lac-Z gene encoding the enzyme β-galactosidase. The yeast cells were incubated in medium containing the test chemical and the chromogenic substrate, […] (CPRG), and active ligands induced β-gal expression. The β-galactosidase secreted into the medium causes the yellow CPGR to change into a red product, and this is measurable by absorbance.
The medium components were prepared and the standard assay procedure was followed.^32 Chemicals were serially diluted in ethanol and 10 μl volumes were transferred to 96-well flat-bottom plates where the ethanol was allowed to evaporate to dryness. Then, 200 μl medium containing CPRG and yeast (final cell number of 5×10^5 cells/ml) was added to each well. Included with every assay was a negative control, ethanol, and a positive control, 17 β-oestradiol (stock solution of 17 β-oestradiol (2×10^−7 mol dm^−3) serially diluted in ethanol to achieve final concentrations of 1×10^−8 mol dm^−3 to 4.88×10^−12 mol dm^−3 in the wells).
The absorbance values were corrected for cell density using the following equation: Corrected value=chemical540nm−(chemical620nm−ethanol blank620nm).
All chemicals were tested in duplicate and each YES was carried out at least three times.

[2] = tested on: male Japanese Medaka fish; conditions: post-hatching stages of development, references 12, 13, 28; cited from earlier work
human oestrogen receptor [3] = biological target: T1, human oestrogen receptor; conditions: studied before, reference 13; cited from earlier work
[4] = YES assay, initial 3-NP sample (Pd/C, contains small amounts of ring hydrogenated product)
[5] = second sample, [RhCl(PPh3)3] hydrogenation, no ring hydrogenation products

Compound: CCCCCCCCCc1cccc(O)c1 [3-NP, 3-Nonylphenol]
- oestrogenicity relative to 17 β-oestradiol (times as oestrogenic) (human oestrogen receptor [1]; YES assay (conclusion)): ~10^−6 times
- oestrogenic response in the YES assay (in words) (human oestrogen receptor [1]; YES assay, FIG. 1 and FIG. 2): full dose response curve
- times less potent in oestrogenicity than the banned substance (4-nonylphenol) (human oestrogen receptor [1]; YES assay, 3-nonylphenol prepared by ethenolysis of cardanol (conclusion)): at least 150 times
- potency, fold less than 4-NP (mixed isomers) (human oestrogen receptor [1]; [4]): ~300 fold
- potency, fold less than 17 β-oestradiol (human oestrogen receptor [1]; [4]): approximately 1.5×10^6 fold
- reduction in oestrogenic activity on moving the linear alkyl group from the 4- to the 3-position (vs 4-n-NP) (human oestrogen receptor [1]; YES assay, tested 1×10^−3 to 5×10^−7 mol dm^−3, initial sample (Pd/C hydrogenation)): 10 fold
- orders of magnitude less oestrogenic than 4-nonylphenol (human oestrogen receptor [1]; oestrogenicity studies, summary statement): 2 orders of magnitude
- increase in oestrogenicity of second sample versus initial sample (human oestrogen receptor [1]; [5]): 2 fold
- oestrogenicity, times lower than that of 4-NP mixed isomers (human oestrogen receptor [1]; [5]): 150 times

Compound: CCCCCCCCCc1ccc(O)cc1 [4-NP, 4-nonylphenol]
- endocrine disrupting effect [2]: induce testes-ova

Compound: CCCCCCCCCc1ccc(O)cc1 [4-n-NP, 4-nonylphenol]
- oestrogenicity compared with commercial 4-nonylphenol with mixed alkyl chains (human oestrogen receptor [3]): lower oestrogenicity
